20 compounds from patent US20040038855A1 (priority 1999, published 2004) can be followed below.

Like-named read-outs stand apart in the source and are kept apart here. Where only a bound is given, the exact number is not on record here.

In test [1] the target is T1, rat MCH1 receptor (Rattus norvegicus, UniProt P97639).
T1 construct: expressed in transfected cells
Description: Binding affinity (Ki) at the rat MCH1 receptor.

In test [2] the target is T2, human Dopamine D2 receptor (Homo sapiens, UniProt P14416).
T2 construct: purchased BioSignal, Inc. (Montreal, Canada)
T2 sequence (P14416 whole entry): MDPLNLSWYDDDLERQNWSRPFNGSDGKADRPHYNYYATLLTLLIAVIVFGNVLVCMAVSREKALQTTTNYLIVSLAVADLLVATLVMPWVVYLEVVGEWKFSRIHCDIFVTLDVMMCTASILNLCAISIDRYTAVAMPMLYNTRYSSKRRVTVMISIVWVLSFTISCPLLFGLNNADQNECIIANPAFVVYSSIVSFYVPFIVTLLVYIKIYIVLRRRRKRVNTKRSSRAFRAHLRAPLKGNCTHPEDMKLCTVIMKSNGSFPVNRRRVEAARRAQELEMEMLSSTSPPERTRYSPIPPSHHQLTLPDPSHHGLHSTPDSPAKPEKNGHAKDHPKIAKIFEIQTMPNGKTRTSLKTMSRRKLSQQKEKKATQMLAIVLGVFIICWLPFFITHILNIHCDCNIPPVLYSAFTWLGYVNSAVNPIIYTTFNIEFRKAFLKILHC
Nature of the test: Binding affinity at the human dopamine D2 receptor. As to conditions: Table 3c; read-out: hD2 Ki. In a few lines:
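Binding to α2A and D5 receptors is run by established receptor-binding procedures; human D1 and D2 binding uses membranes prepared from receptor-expressing cells.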

For test [3], the target named is T3, human Histamine H1 receptor (Homo sapiens, UniProt P35367).
T3 construct: expressed in transfected cells
T3 sequence (P35367 whole entry): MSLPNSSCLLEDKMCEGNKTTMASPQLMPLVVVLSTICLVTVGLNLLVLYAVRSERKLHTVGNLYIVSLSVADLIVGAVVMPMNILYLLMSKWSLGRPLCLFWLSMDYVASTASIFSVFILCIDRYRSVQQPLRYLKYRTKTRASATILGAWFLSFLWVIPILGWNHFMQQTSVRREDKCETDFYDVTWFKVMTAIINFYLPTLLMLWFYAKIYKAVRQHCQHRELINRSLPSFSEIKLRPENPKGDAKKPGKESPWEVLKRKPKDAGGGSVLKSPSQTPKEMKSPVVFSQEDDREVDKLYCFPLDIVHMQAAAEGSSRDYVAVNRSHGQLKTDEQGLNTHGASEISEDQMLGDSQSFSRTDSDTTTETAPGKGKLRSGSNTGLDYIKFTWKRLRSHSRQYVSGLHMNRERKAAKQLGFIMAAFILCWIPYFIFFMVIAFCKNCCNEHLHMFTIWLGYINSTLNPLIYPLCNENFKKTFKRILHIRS
Nature of the test: Binding affinity at the human histamine H1 receptor. As to conditions: Table 3c; read-out: hH1 Ki. The source says:
Other receptors: Cell membranes expressing human dopamine D1, D2, D4 and rat D3 receptors were purchased through BioSignal, Inc. (Montreal, Canada). Binding assays using the histamine H1 receptor; dopamine receptors; and α1A, α1B, and α2 adrenergic receptors may be carried out according to the procedures described in U.S. Pat. No. 5,780,485, the disclosure of which is hereby incorporated by reference in its entirety into this application. Binding assays using the dopamine D5 receptor may be carried out according to the procedures described in U.S. Pat. No. 5,882,855, the disclosure of which is hereby incorporated by reference in its entirety into this application. Binding assays for the human α1D adrenergic receptor may be carried out according to the procedures described in U.S. Pat. No. 6,156,518, the disclosure of which is hereby incorporated by reference in its entirety into this application.

Test [4] deals with T4, human Alpha-1a Adrenergic receptor (Homo sapiens, UniProt P35348).
T4 construct: expressed in transfected cells
T4 sequence (P35348 1-466): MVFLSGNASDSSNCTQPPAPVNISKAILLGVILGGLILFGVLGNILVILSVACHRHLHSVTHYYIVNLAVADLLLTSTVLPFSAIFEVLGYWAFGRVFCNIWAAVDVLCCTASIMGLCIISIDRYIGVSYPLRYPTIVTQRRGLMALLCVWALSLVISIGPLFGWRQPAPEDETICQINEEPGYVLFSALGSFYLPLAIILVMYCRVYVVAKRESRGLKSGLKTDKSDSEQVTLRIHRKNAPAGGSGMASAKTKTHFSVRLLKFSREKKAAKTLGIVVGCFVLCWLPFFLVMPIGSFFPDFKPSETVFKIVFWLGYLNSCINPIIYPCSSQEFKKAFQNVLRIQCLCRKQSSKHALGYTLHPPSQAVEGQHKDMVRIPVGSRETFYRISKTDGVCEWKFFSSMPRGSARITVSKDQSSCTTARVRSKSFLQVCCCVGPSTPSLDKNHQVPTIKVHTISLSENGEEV
Description: Binding affinity at the human alpha-1A adrenergic receptor. Conditions: Table 3c; read-out: hAlpha-1a Ki. The essentials: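 Receptor binding read-out throughout; membranes expressing human D1 or D2 receptor were used for those two targets.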

Setting [5] is: Examples 38-141, read-out: Ki (nM) rMCH1.

T1 sequence (P97639 whole entry): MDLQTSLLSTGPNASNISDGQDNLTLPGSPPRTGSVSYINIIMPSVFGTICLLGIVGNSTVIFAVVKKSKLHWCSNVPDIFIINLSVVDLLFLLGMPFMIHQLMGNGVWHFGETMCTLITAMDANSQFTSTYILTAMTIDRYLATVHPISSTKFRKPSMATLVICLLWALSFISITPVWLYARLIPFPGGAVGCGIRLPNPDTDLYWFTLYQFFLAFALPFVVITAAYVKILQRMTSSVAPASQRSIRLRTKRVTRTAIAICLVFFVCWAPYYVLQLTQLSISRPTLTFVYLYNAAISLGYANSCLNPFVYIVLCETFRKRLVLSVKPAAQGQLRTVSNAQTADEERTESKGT

As usually defined, the Ki is the dissociation constant of the complex between target and ligand, obtained from inhibition or displacement. With `CC(C)C(=O)Nc1cccc(C2CCN(CC[C@@H](Oc3cc(F)ccc3F)c3ccccc3)CC2)c1` [Example 110], the inhibitory constant (Ki) stood at 4.9 nM in test [1] (setting [5]); 4.9 nM in test [1] (Table 3c, read-out: rMCH1 Ki); 83 nM in test [2]; 283 nM in test [3]; 187 nM in test [4].

Take `CC(=O)Nc1cccc(C2CCN(CCCNC(=O)N3C(=O)NC4=C(C(=O)OC4)C3c3ccc4c(c3)OCO4)CC2)c1` (stereo not shown) [Example 53]: the Ki in test [1] (setting [5]) was 50.8 nM; in test [1] (Table 3c, read-out: rMCH1 Ki) it was 50.8 nM; in test [2] it was 3450 nM; in test [3], 10400 nM; in test [4], 2310 nM.

`COC(=O)C1=C(C)NC(=O)N(C(=O)NCCCN2CCC(c3cccc(NC(C)=O)c3)CC2)[C@H]1c1ccc(F)c(F)c1` [Example 56, METHYL (4S)-3-{[(3-{4[3-(ACETYLAMINO)PHENYL]-1-PIPERIDINYL}PROPYL)AMINO]CARBONYL}-4-(3,4-DIFLUOROPHENYL)-6-METHYL-2-OXO-1,2,3,4-TETRAHYDRO-5-PYRIMIDINECARBOXYLATE]: the Ki in test [1] (setting [5]) was 0.26 nM; in test [1] (Table 3c, read-out: rMCH1 Ki) it was 0.26 nM; in test [2] it was 10400 nM; in test [3] it was 7230 nM; in test [4], 305 nM.

Regarding `COC(CCN1CCC(c2cccc(NC(=O)C(C)C)c2)CC1)c1ccc(Cl)cc1` (stereo not shown) [Example 91], the Ki worked out at 11.5 nM in test [1] (setting [5]); 11.5 nM in test [1] (Table 3c, read-out: rMCH1 Ki); 9650 nM in test [2]; 2000 nM in test [3]; 533 nM in test [4].

As to `CC(=O)Nc1cccc(C2CCN(CCCNC(=O)N3C(=O)OCC3Cc3ccc(F)cc3)CC2)c1` (stereo not shown) [Example 132], the Ki in test [1] (setting [5]) was found to be 44.6 nM; in test [1] (Table 3c, read-out: rMCH1 Ki) it was 44.6 nM; in test [2], 41500 nM; in test [3] it was 39700 nM; in test [4] it was 11000 nM.

For the compound `COc1cccc(CC(=O)Nc2cccc(C3CCN(CCCC(=O)c4ccc(C)c(C)c4)CC3)c2)c1` [Example 61], the Ki in test [1] (setting [5]) stood at 14.2 nM; in test [1] (Table 3c, read-out: rMCH1 Ki), 14.2 nM; in test [2], 1140 nM; in test [3], 1620 nM; in test [4], 9.1 nM.

Regarding `CCCC(=O)Nc1cccc(C2CCN(CCCNC(=O)N3C(=O)NC(COC)=C(C(=O)OC)[C@@H]3c3ccc(F)c(F)c3)CC2)c1` [Example 44, METHYL (4S)-3-{[(3-{4-[3-(BUTYRYLAMINO)PHENYL]-1-PIPERIDINYL}PROPYL)AMINO]CARBONYL}-4-(3,4-DIFLUOROPHENYL)-6-(METHOXYMETHYL)-2-OXO-1,2,3,4-TETRAHYDRO-5-PYRIMIDINECARBOXYLATE], the Ki in test [1] (setting [5]) is 0.09 nM; in test [1] (Table 3c, read-out: rMCH1 Ki), 0.09 nM; in test [2], 3610 nM; in test [3], 2590 nM; in test [4], 11.4 nM.

As to `COC(=O)C1=C(C)N=C(SCc2ccc(OC)cc2)N(C(=O)NCCCN2CCC(c3cccc(NC(C)=O)c3)CC2)C1c1ccc([N+](=O)[O-])cc1` (stereo not shown) [Example 54, METHYL 1-{[(3-{4-[3-(ACETYLAMINO)PHENYL]-1-PIPERIDINYL}PROPYL)AMINO]CARBONYL}-2-[(4-METHOXYBENZYL)SULFANYL]-4-METHYL-6-(4-NITROPHENYL)-1,6-DIHYDRO-5-PYRIMIDINECARBOXYLATE], the Ki is 29.9 nM in test [1] (setting [5]); 29.9 nM in test [1] (Table 3c, read-out: rMCH1 Ki); 23000 nM in test [2]; 11400 nM in test [3]; 11100 nM in test [4].

On to `COCC1=C(C(=O)NCCCN2CCC(c3cccc(NC(=O)CC(C)C)c3)CC2)[C@@H](c2ccc(F)c(F)c2)NC(=O)N1` [Example 47], for which the Ki in test [1] (setting [5]) came to 34.3 nM; in test [1] (Table 3c, read-out: rMCH1 Ki) it was 34.3 nM; in test [2] it was 13500 nM; in test [3], 3250 nM; in test [4], 553 nM.

For the compound `CC(C)C(=O)Nc1cccc(C2CCN(CC[C@@H](Oc3cccc([N+](=O)[O-])c3)c3ccccc3)CC2)c1` [Example 135], the Ki in test [1] (setting [5]) is 19.4 nM; in test [1] (Table 3c, read-out: rMCH1 Ki) it was 19.4 nM; in test [2], 244 nM; in test [3], 507 nM; in test [4], 722 nM.

Take `CC(C)C(=O)Nc1cccc(C2CCN(CCCC(c3ccc(F)cc3)c3ccc(F)cc3)CC2)c1` [Example 101]: the Ki in test [1] (setting [5]) stood at 1.6 nM; in test [1] (Table 3c, read-out: rMCH1 Ki) it was 1.6 nM; in test [2] it was 42.2 nM; in test [3], 3.4 nM; in test [4], 18 nM.

In the case of `COc1ccc(C(=O)CCCN2CCC(c3cccc(NC(=O)C(C)C)c3)CC2)c(OC)c1` [Example 78], the Ki in test [1] (setting [5]) turned out to be 52 nM; in test [1] (Table 3c, read-out: rMCH1 Ki), 52 nM; in test [2] it was 5180 nM; in test [3] it was 2280 nM; in test [4], 284 nM.

Take `CC(C)C(=O)Nc1cccc(C2CCN(CCCCCCN3C(=O)c4ccccc4C3=O)CC2)c1` [Example 92]: the Ki was 62 nM in test [1] (setting [5]); 62 nM in test [1] (Table 3c, read-out: rMCH1 Ki); 12000 nM in test [2]; 2450 nM in test [3]; 1490 nM in test [4].

As to `COCC1=C(C(=O)OC)C(c2ccc(F)c(F)c2)N(C(=O)NCCCN2CCC(c3cc(F)ccc3OC)CC2)C(=O)N1` (stereo not shown) [Example 115], the Ki in test [1] (setting [5]) was 12.9 nM; in test [1] (Table 3c, read-out: rMCH1 Ki), 12.9 nM; in test [2], 262 nM; in test [3] it was 46.9 nM; in test [4], 49.1 nM.

In the case of `CCC(=O)Nc1cccc(C2CCN(CCCNC(=O)N3C(=O)NC(COC)=C(C(=O)OC)[C@@H]3c3ccc(F)c(F)c3)CC2)c1` [Example 41, METHYL (4S)-4-(3,4-DIFLUOROPHENYL)-6-(METHOXYMETHYL)-2-OXO-3-{[(3-{4-[3-(PROPIONYLAMINO)PHENYL]-1-PIPERIDINYL)PROPYL)AMINO]CARBONYL}-1,2,3,4-TETRAHYDRO-5-PYRIMIDINECARBOXYLATE], the Ki was 0.04 nM in test [1] (setting [5]); 0.04 nM in test [1] (Table 3c, read-out: rMCH1 Ki); 9610 nM in test [2]; 4540 nM in test [3]; 14.3 nM in test [4].

For `CC(C)C(=O)Nc1cccc(C2CCN(CC[C@H](OC(=O)c3cccc4ccccc34)c3ccccc3)CC2)c1` [Example 125], the Ki is 32.5 nM in test [1] (setting [5]); 32.5 nM in test [1] (Table 3c, read-out: rMCH1 Ki); 46.6 nM in test [2]; over 50000 nM in test [3]; 232 nM in test [4].

Turning to `CC(C)C(=O)Nc1cccc(C2CCN(CC[C@H](Oc3cccc(Cl)c3)c3ccccc3)CC2)c1` [Example 107], the Ki in test [1] (setting [5]) stood at 3.1 nM; in test [1] (Table 3c, read-out: rMCH1 Ki) it was 3.1 nM; in test [2] it was 152 nM; in test [3], 130 nM; in test [4], 33.5 nM.

Consider `CC(C)C(=O)Nc1cccc(C2CCN(CC[C@H](Oc3cc(F)ccc3F)c3ccccc3)CC2)c1` [Example 123], for which the Ki was found to be 5.9 nM in test [1] (setting [5]); 5.9 nM in test [1] (Table 3c, read-out: rMCH1 Ki); 133 nM in test [2]; 2150 nM in test [3]; 511 nM in test [4].

Turning to `CC(C)C(=O)Nc1cccc(C2CCN(CC[C@H](Oc3cc(C(F)(F)F)ccc3F)c3ccccc3)CC2)c1` [Example 122], the Ki in test [1] (setting [5]) was found to be 3.3 nM; in test [1] (Table 3c, read-out: rMCH1 Ki), 3.3 nM; in test [2], 132 nM; in test [3] it was 3470 nM; in test [4] it was 944 nM.

Turning to `CC(=O)Nc1cccc(C2CCN(CCCNC(=O)N3C(=O)OC(C)(C)C3c3ccc(F)c(F)c3)CC2)c1` (stereo not shown) [Example 130], the Ki in test [1] (setting [5]) stood at 48.6 nM; in test [1] (Table 3c, read-out: rMCH1 Ki) it was 48.6 nM; in test [2] it was 39500 nM; in test [3] it was 1860 nM; in test [4], 333 nM.
